{"source": "paper PMC12700550", "about": "“DLL4^+ neutrophils promote Notch1-mediated endothelial PANoptosis to exacerbate acute lung injury in sepsis” (The Journal of Clinical Investigation, 2025)", "molecules": {"B1": {"name": "DLL4: Recombinant murine DLL4, R&D Systems (protein)", "chain": "GSGIFQLRLQEFVNQRGMLANGQSCEPGCRTFFRICLKHFQATFSEGPCTFGNVSTPVLGTNSFVVRDKNSGSGRNPLQLPFNFTWPGTFSLNIQAWHTPGDDLRPETSPGNSLISQIIIQGSLAVGKIWRTDEQNDTLTRLSYSYRVICSDNYYGESCSRLCKKRDDHFGHYECQPDGSLSCLPGWTGKYCDQPICLSGCHEQNGYCSKPDECICRPGWQGRLCNECIPHNGCRHGTCSIPWQCACDEGWGGLFCDQDLNYCTHHSPCKNGSTCSNSGPKGYTCTCLPGYTGEHCELGLSKCASNPCRNGGSCKDQENSYHCLCPPGYYGQHCEHSTLTCADSPCFNGGSCRERNQGSSYACECPPNFTGSNCEKKVDRCTSNPCANGGQCQNRGPSRTCRCRPGFTGTHCELHISDCARSPCAHGGTCHDLENGPVCTCPAGFSGRRCEVRITHDACASGPCFNGATCYTGLSPNNFVCNCPYGFVGSRCEFPVGLPPSFPWVA"}}, "key": {"ZBP1 [1]": {"tested_on": "ZBP1", "test": "ZBP1 mRNA in PVECs cocultured with neutrophils, RT-PCR (DAPT, NDI, peptides 1–5)", "format": "cell-based, mouse", "details": "DAPT, DLL4^+ neutrophil–PVEC coculture", "protocol": "Immortalized mouse (Mus musculus) lung endothelial cells with polyoma middle T (PVECs) were purchased from Applied Biological Materials Inc. (ABM) and grown in 1:1 PriGrow VI Medium and PriGrow IV Medium (ABM).\n(§1) Wild-type PVECs (5 × 10^5) were cocultured with sorted DLL4^+ neutrophils (5 × 10^5) or DLL4^– neutrophils (5 × 10^5) and then treated with different dosages of peptides or 10 μM DAPT (Thermo Fisher Scientific), 10 μM NDI (GenScript), or 10 μM NDI scramble (GenScript). Notch1-knockdown PVECs (5 × 10^5) were cocultured with sorted DLL4^+ neutrophils (5 × 10^5). After 16 hours, neutrophils were washed away by PBS, and PVECs were collected for further experiments. Cell viability was evaluated by propidium iodide staining using the FITC Annexin V Apoptosis Detection Kit I (catalog 556547, BD Pharmingen). Cell death was quantified as the percentage of propidium iodide–positive cells by flow cytometry.\nmRNA was extracted from lung tissues with TRIzol reagent (Invitrogen, Thermo Fisher Scientific). An equal amount ([…]) of mRNA was reverse-transcribed into cDNA using the reverse transcriptase enzyme (Invitrogen, Thermo Fisher Scientific). qPCR was performed from the diluted cDNA templates with forward and reverse primers (Supplemental Table 4) and SYBR Green PCR Master Mix (Applied Biosystems, Thermo Fisher Scientific) using an Applied Biosystems 7300 real-time PCR machine. Mouse β-actin served as an internal control gene for normalization. Relative expression of mRNA was represented as fold change in comparison with the sham group."}, "ZBP1 [2]": {"tested_on": "ZBP1", "test": "ZBP1 protein in PVECs cocultured with neutrophils, Western blot", "format": "cell-based, mouse", "details": "DAPT", "protocol": "as §1\n(§2) PVECs and lung tissue were collected in previous steps. Whole-cell proteins were extracted, and the protein concentration was measured using an ABC protein assay kit (catalog 5000002, Bio-Rad). Proteins were separated using NuPAGE 4%–12% Bis-Tris gels (Invitrogen), transferred to PVDF membranes, and immunoblotted with the antibodies indicated in the figure legends according to the manufacturer’s recommendations. The ZBP1 antibody (catalog PA5-20455; 1:1,000) used in this study was obtained from Thermo Fisher Scientific, and the c-GSDMD (catalog 10137S; 1:250), GSDMD (catalog 39754S; 1:1000), c-caspase-3 (catalog 9661L; 1:250), caspase-3 (catalog 9662S; 1:1,000), p-MLKL (catalog 37333S; 1:250), MLKL (catalog 37705S; 1:1,000), N1ICD (c-Notch1) (catalog 4147S; 1:250), and Notch1 (catalog 3608S; 1:1,000) antibodies were obtained from Cell Signaling Technology. GAPDH (catalog 60004-1-Ig; 1:10,000) and β-actin (catalog A5441, Sigma-Aldrich; 1:5,000) were obtained from ProteinTech. After the blots were incubated with primary antibodies, the membranes were washed 3 times, and the blots were subsequently incubated with the corresponding fluorescent secondary antibody (LI-COR). Bands were detected using an Odyssey FC Dual-Mode Imaging system 2800 (LI-COR)."}, "c-GSDMD": {"tested_on": "c-GSDMD", "test": "c/t GSDMD (pyroptosis) in PVECs cocultured with neutrophils, Western blot", "format": "cell-based, mouse", "details": "DAPT", "protocol": "as §1, §2"}, "c-caspase-3": {"tested_on": "c-caspase-3", "test": "c/t caspase-3 (apoptosis) in PVECs cocultured with neutrophils, Western blot", "format": "cell-based, mouse", "details": "DAPT", "protocol": "as §1, §2"}, "p-MLKL": {"tested_on": "p-MLKL", "test": "p-MLKL/MLKL (necroptosis) in PVECs cocultured with neutrophils, Western blot", "format": "cell-based, mouse", "details": "DAPT", "protocol": "as §1, §2"}, "[3]": {"target": "Recombinant murine (rm) Notch1 (murine) (UniProt Q01705)", "sequence (Q01705 19-2531)": "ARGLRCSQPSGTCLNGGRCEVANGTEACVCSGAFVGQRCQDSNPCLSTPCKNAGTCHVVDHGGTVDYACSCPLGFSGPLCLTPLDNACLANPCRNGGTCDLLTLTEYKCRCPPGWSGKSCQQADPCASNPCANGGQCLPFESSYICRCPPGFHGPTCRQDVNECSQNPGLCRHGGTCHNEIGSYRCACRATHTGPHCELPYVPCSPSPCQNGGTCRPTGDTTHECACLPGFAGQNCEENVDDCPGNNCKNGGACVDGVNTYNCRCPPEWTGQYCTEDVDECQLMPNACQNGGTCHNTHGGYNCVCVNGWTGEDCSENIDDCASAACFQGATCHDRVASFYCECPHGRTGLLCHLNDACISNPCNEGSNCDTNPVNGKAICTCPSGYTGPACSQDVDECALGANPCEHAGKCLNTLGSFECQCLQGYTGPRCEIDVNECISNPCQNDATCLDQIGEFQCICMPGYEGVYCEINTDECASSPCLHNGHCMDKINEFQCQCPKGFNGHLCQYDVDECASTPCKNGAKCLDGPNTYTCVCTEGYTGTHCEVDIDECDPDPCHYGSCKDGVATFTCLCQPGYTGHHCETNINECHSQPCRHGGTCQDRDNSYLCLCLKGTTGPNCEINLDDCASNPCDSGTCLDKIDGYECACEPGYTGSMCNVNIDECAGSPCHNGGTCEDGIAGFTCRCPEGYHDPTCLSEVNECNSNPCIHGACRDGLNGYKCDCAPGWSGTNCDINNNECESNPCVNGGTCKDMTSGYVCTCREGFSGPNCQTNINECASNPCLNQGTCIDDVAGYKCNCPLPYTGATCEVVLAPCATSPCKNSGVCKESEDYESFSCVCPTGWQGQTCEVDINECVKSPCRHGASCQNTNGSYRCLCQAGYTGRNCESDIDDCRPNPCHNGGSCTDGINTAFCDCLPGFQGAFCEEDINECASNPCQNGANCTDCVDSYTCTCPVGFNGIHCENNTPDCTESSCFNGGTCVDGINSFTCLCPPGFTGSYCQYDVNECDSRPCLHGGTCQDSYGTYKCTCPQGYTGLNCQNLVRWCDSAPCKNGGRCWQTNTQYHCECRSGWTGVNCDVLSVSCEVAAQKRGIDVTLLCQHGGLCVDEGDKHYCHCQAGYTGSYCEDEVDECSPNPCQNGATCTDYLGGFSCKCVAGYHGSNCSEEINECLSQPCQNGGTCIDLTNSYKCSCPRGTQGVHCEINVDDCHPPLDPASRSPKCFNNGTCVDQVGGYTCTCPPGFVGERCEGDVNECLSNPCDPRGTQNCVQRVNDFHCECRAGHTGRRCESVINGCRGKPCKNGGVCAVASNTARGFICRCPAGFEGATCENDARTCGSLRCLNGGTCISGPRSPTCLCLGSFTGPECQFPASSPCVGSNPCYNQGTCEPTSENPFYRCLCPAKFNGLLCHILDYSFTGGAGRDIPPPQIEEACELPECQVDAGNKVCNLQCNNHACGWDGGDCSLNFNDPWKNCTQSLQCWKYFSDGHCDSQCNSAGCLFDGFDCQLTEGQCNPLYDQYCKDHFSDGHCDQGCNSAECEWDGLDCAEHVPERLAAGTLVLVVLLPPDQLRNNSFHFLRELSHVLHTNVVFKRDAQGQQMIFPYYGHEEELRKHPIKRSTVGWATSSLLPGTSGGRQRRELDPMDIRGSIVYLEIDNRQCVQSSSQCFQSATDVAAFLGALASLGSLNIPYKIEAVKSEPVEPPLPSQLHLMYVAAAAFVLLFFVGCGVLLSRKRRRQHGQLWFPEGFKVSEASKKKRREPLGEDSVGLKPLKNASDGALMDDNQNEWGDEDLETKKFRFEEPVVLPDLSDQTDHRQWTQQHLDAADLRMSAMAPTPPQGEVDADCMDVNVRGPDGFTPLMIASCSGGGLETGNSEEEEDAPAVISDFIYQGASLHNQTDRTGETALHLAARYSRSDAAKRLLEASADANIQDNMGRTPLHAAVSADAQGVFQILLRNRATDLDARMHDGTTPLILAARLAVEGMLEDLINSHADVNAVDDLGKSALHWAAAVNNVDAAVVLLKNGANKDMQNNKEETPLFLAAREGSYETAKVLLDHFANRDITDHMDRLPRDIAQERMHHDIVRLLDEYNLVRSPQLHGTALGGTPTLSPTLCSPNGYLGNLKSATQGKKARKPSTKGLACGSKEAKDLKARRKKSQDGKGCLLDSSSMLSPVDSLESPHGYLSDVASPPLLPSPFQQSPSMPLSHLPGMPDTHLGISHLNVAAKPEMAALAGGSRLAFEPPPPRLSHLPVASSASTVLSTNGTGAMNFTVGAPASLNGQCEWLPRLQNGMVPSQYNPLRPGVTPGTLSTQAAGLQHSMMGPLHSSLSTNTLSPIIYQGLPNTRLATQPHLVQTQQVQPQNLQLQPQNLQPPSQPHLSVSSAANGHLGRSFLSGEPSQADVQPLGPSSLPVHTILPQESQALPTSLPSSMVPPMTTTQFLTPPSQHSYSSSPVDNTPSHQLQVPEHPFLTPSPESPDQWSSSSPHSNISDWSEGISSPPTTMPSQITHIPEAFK", "test": "SPR; as a1, same HS-NTA sensor with rmNotch1; rmDLL4 at all concentrations preincubated with 1 ug/mL NDI for 30 minutes at room temperature before injection; 40 uL/min, 20°C; global 1:1 fit"}, "[4]": {"target": "Recombinant murine (rm) Notch1 (murine) (UniProt Q01705)", "test": "SPR; OpenSPR (Nicoya), HS-NTA sensor activated with NiCl2; rmNotch1 (25 ug/mL) immobilised on channel 2; rmDLL4 as analyte at 5, 12.5, 50 and 100 nM, 40 uL/min; PBS, 0.005% P20, pH 7.4; channel 1 subtracted; global 1:1 fit"}, "rmNotch1": {"target": "T1, rmNotch1 (Mus musculus, UniProt Q01705)", "T1 construct": "purchased R&D Systems 5267-TK (rmNotch1); 1389-D4-050/CF (rmDLL4)", "T1 sequence (Q01705 with tags, fused parts or gaps limits assumed, one chain of several)": "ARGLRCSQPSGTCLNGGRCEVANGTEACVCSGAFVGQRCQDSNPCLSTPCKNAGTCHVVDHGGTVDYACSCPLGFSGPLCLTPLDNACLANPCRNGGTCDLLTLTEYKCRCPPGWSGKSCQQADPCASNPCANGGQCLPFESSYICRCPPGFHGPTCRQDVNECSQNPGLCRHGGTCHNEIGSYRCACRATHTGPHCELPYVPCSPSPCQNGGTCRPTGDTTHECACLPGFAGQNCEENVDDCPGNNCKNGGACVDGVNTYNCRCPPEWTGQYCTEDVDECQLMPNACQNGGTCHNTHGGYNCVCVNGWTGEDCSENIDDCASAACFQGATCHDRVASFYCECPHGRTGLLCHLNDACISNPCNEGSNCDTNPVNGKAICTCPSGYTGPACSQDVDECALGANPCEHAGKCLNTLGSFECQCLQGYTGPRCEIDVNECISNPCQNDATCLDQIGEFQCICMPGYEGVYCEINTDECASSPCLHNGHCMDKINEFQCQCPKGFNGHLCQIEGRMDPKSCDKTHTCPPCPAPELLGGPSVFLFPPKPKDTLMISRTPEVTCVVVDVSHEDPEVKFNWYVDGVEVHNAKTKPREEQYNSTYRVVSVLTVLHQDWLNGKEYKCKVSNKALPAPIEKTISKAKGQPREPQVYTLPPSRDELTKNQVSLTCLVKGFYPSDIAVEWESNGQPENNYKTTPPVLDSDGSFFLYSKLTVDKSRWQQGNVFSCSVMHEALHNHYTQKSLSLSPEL", "test": "BIAcore assay (surface plasmon resonance), rmDLL4 to immobilized rmNotch1", "format": "binding, murine", "details": "OpenSPR, HS-NTA sensor, rmDLL4 5–100 nM, PBS 0.005% P20 pH 7.4, 20°C, 1:1 fit; without NDI; read-out: KD between DLL4 and Notch1", "protocol": "To determine rmDLL4’s direct interaction with rmNotch1, surface plasmon resonance (OpenSPR, Nicoya) was performed. High-sensitivity nitrilotriacetic acid (HS-NTA) sensors were used. Binding reactions were performed in running buffer (PBS, 0.005% P20, pH 7.4). The HS-NTA sensor was first cleaned by injection with 10 mM HCl (150 μL) followed by injection of 150 μL of 350 mM EDTA. […] For the effect of NDI efficacy on rmDLL4 binding to rmNotch1, the same HS-NTA sensor was used. rmDLL4 at all the concentrations used for binding with rmNotch1 was preincubated with 1 μg/mL NDI for 30 minutes at room temperature, and then the complexes were injected to channels 1 and 2. Binding reactions were carried out with the same running buffer at a flow rate of 40 μL/min at 20°C. Channel 1 was used as a control to evaluate nonspecific binding. The real-time interaction data were analyzed by Trace Drawer (Nicoya). The signals from channel 1 were subtracted from channel 2 coated with the ligand for all samples. Data were globally fitted for 1:1 binding (one-to-one model)."}, "[5]": {"details": "DLL4^+ neutrophil–stimulated PVECs"}, "[6]": {"details": "DLL4^– neutrophil–treated PVECs"}}}
{"molecule": "C[C@H](NC(=O)Cc1cc(F)cc(F)c1)C(=O)N[C@H](C(=O)OC(C)(C)C)c1ccccc1", "note": "[DAPT, N-[N-(3,5-difluorophenacetyl)-L-alanyl]-S-phenylglycine t-butyl ester, reference compound]", "values": [{"measurement": "effect on ZBP1 mRNA", "setting": "ZBP1 [1]", "result": "reduced it to the baseline levels"}, {"measurement": "effect on ZBP1", "setting": "ZBP1 [2]; [5]", "result": "significantly reduced the elevated expression"}, {"measurement": "effect on ZBP1", "setting": "ZBP1 [2]; [6]", "result": "did not significantly reduce"}, {"measurement": "effect on c-GSDMD", "setting": "c-GSDMD; [5]", "result": "significantly reduced the elevated expression"}, {"measurement": "effect on c-GSDMD", "setting": "c-GSDMD; [6]", "result": "did not significantly reduce"}, {"measurement": "effect on c-caspase-3", "setting": "c-caspase-3; [5]", "result": "significantly reduced the elevated expression"}, {"measurement": "effect on c-caspase-3", "setting": "c-caspase-3; [6]", "result": "did not significantly reduce"}, {"measurement": "effect on p-MLKL", "setting": "p-MLKL; [5]", "result": "significantly reduced the elevated expression"}, {"measurement": "effect on p-MLKL", "setting": "p-MLKL; [6]", "result": "did not significantly reduce"}]}
{"molecule": "Recombinant murine (rm) DLL4 (from UniProt Q9JI71 27-532) (ligand)", "values": [{"measurement": "KD with NDI present", "setting": "[3]", "result": 237, "unit": "nM"}, {"measurement": "Kd", "setting": "[4]", "result": 42.6, "unit": "nM"}]}
{"molecule": "B1", "values": [{"measurement": "Kd", "setting": "rmNotch1", "result": 42.6, "unit": "nM"}]}
